Patent US4973675A, “Hybrid nitrosoureidoanthracyclines having antitumor activity” (University of Tennessee Research Center, priority 1989, dated 1990)
Read-outs that look alike come from different tables or passages of the source.

Columns and labels:
[1] = system: human CEM leukemic lymphocytes; assay: Growth inhibition of human CEM leukemic lymphocyte suspension cultures, 48 h continuous drug exposure (ID50); format: cell-based; settings: Homo sapiens, Lymphocyte
Protocol: (§1) Culture and bioassay conditions were as described in Cancer Chemotherapy Pharmacology 20:277 (1987) "Comparative Effects of Adriamycin and DNA-nonbinding Analogues on DNA, RNA, and Protein Synthesis in Vitro", Israel et al., except that cell counts were determined by hemocytometer rather than by automated cell counting.

[2] = system: plasmid PC15 supercoiled DNA; assay: DNA unwinding assay (interference with DNA topoisomerase I-mediated unwinding; drug-DNA intercalation); format: biochemical; settings: for interference with topoisomerase I-mediated conversion of supercoiled DNA / intercalation: 4 concentrations, 125-fold range
Text: DNA unwinding assays were used to measure the ability of a test drug to interfere with DNA topoisomerase I-mediated unwinding of plasmid PC15 supercoiled DNA. DNA topoisomerase I controls the topology of double-stranded DNA and is itself not inhibited by DNA intercalating agents. Rather, intercalating agents cause distortion of the torsional angle between adjacent DNA strand components and thereby interfere with the ability of topoisomerase I to convert supercoiled DNA into relaxed forms. Accordingly, this assay is taken as the definitive test of drug-DNA intercalation.
Drugs were tested at 4 concentrations over a 125-fold concentration range. […] These compounds are 2-chloroethylurea derivatives of daunorubicin and adriamycin, respectively (i.e. not nitrosoureas, but chemical intermediates from which the nitrosoureas were derived).

calf thymus DNA = assay: Interstrand cross-link formation in isolated calf thymus DNA, ethidium bromide fluorescence assay; format: biochemical; settings: 10 mM, 4 hours at 50° C.
Protocol: To further assess the alkylation potential of AD 312, the ability of this agent to form interstrand cross-links in isolated calf thymus DNA was examined using an ethidium bromide fluorescence assay. […] In one set of experiments, DNA was exposed briefly to AD 312 (30 minutes at 50° C.) before being reisolated by precipitation with ethanol. […] Such continuing reaction reflects the presence in the DNA of long-lived precursors of crosslinks similar to what has been found for the classical antitumor chloroethylnitrosoureas. […] It appears, therefore, that AD 312 induces DNA interstrand crosslinks via an initial adduct at O^6 -guanine.

[3] = Solubility in water or saline; format: physicochemical
Protocol: Accordingly, the compounds are formulated for administration by dissolving the compound in a pharmaceutically acceptable non-toxic carrier which contains a surfactant. The present inventors employ a formulation of 10% Cremaphor EL (a polyhydroxylated castor oil derivative) available from BASF Chemicals, 10% ethanol and 80% aqueous media (sterile water or saline solution). That quantity of the compound desired for establishing an effective dose is dissolved in a 1:1 mixture of Cremaphor EL and ethanol. Thereafter, sufficient aqueous medium is added with stirring to develop a final formulation containing 80% aqueous medium. This formulation is administered parenterally.

DNA topoisomerase II = assay: Drug-stimulated topoisomerase II-mediated DNA cleavage assay (end-labeled PMC41 DNA); format: biochemical; settings: 625-fold concentration range
Text: FIGS. 5A and 5B are a photographic reproduction of the results of drug-stimulated topoisomerase II-mediated DNA cleavage assays performed on various compounds, including compounds of the present invention.
DNA intercalation is a necessary but not a sufficient requirement for DNA topoisomerase II-mediated DNA cleavage. Accordingly, determination of drug-induced enzyme inhibition requires direct assay with isolated topoisomerase II. These assays involve determination of drug-enhanced topoisomerase II-mediated cleavage of PMC41 DNA appropriately end-labeled with [α-^32 P]dATP. As better seen in FIG. 5B, lane B, purified topoisomerase II, under the assay conditions, causes fragmentation of the DNA (background cleavage), as indicated by the radioautographic appearance of bands of cleaved DNA having differing mass values.

[4] = system: murine L1210 leukemia cells; assay: Clonogenic assay with cultured murine L1210 leukemia cells, 1 h drug exposure (LD90); format: cell-based; settings: Mus musculus, L1210; 1 hr drug exposure; read-out: L1210 LD90 (dose killing 90% of clonogens)
Protocol: as §1
+Dose killing 90% of clonogens, 1hr. drug exposure.

[5] = CEM, 48 hr continuous drug exposure (Table 2), read-out: ID50 (the source's name)

## CNC(=O)N[C@H]1C[C@H](O[C@H]2C[C@](O)(C(C)=O)Cc3c(O)c4c(c(O)c32)C(=O)c2c(OC)cccc2C4=O)O[C@@H](C)[C@H]1O [AD 305]
[1]; [5]
  IC50: 2300 nM

## CCNC(=O)N[C@H]1C[C@H](O[C@H]2C[C@](O)(C(C)=O)Cc3c(O)c4c(c(O)c32)C(=O)c2c(OC)cccc2C4=O)O[C@@H](C)[C@H]1O [AD 306]
[1]; [5]
  IC50: > 1000 nM

## COc1cccc2c1C(=O)c1c(O)c3c(c(O)c1C2=O)C[C@@](O)(C(C)=O)C[C@@H]3O[C@H]1C[C@H](NC(=O)NCCCl)[C@H](O)[C@H](C)O1 [AD 307, 2-chloroethylureidodaunorubicin]
[1]; [5]
  IC50: 300 nM
[2]
  interference with topoisomerase I-mediated conversion of supercoiled DNA / intercalation: reasonably strong intercalators
Calf thymus DNA
  interstrand crosslink formation: appeared to produce no such effect

## CCCNC(=O)N[C@H]1C[C@H](O[C@H]2C[C@](O)(C(C)=O)Cc3c(O)c4c(c(O)c32)C(=O)c2c(OC)cccc2C4=O)O[C@@H](C)[C@H]1O [AD 308]
[1]; [5]
  IC50: > 5000 nM

## COc1cccc2c1C(=O)c1c(O)c3c(c(O)c1C2=O)C[C@@](O)(C(C)=O)C[C@@H]3O[C@H]1C[C@H](NC(=O)Nc2ccccc2)[C@H](O)[C@H](C)O1 [AD 309]
[1]; [5]
  IC50: > 1000 nM

## COc1cccc2c1C(=O)c1c(O)c3c(c(O)c1C2=O)C[C@@](O)(C(C)=O)C[C@@H]3O[C@H]1C[C@H](NC(=O)N(C)N=O)[C@H](O)[C@H](C)O1 [AD 310]
[1]; [5]
  IC50: 1400 nM

## CCN(N=O)C(=O)N[C@H]1C[C@H](O[C@H]2C[C@](O)(C(C)=O)Cc3c(O)c4c(c(O)c32)C(=O)c2c(OC)cccc2C4=O)O[C@@H](C)[C@H]1O [AD 311]
[1]; 48 h, read-out: ID50
  IC50: 1500 nM

## CCCN(N=O)C(=O)N[C@H]1C[C@H](O[C@H]2C[C@](O)(C(C)=O)Cc3c(O)c4c(c(O)c32)C(=O)c2c(OC)cccc2C4=O)O[C@@H](C)[C@H]1O [AD 313]
[1]; [5]
  IC50: > 1000 nM

## COc1cccc2c1C(=O)c1c(O)c3c(c(O)c1C2=O)C[C@@](O)(C(C)=O)C[C@@H]3O[C@H]1C[C@H](NC(=O)NC(C)C)[C@H](O)[C@H](C)O1 [AD 328]
[1]; [5]
  IC50: > 1000 nM

## COc1ccc(NC(=O)N[C@H]2C[C@H](O[C@H]3C[C@](O)(C(C)=O)Cc4c(O)c5c(c(O)c43)C(=O)c3c(OC)cccc3C5=O)O[C@@H](C)[C@H]2O)cc1 [AD 330]
[1]; [5]
  IC50: > 1000 nM

## COc1cccc2c1C(=O)c1c(O)c3c(c(O)c1C2=O)C[C@@](O)(C(C)=O)C[C@@H]3O[C@H]1C[C@H](NC(=O)Nc2ccc(F)cc2)[C@H](O)[C@H](C)O1 [AD 332]
[1]; 48 h, read-out: ID50
  IC50: > 1000 nM

## COc1cccc2c1C(=O)c1c(O)c3c(c(O)c1C2=O)C[C@@](O)(C(C)=O)C[C@@H]3O[C@H]1C[C@H](NC(=O)Nc2cccc(C(F)(F)F)c2)[C@H](O)[C@H](C)O1 [AD 334]
[1]; [5]
  IC50: 830 nM

## CCOC(=O)NC(=S)N[C@H]1C[C@H](O[C@H]2C[C@](O)(C(C)=O)Cc3c(O)c4c(c(O)c32)C(=O)c2c(OC)cccc2C4=O)O[C@@H](C)[C@H]1O [AD 336]
[1]; [5]
  IC50: 600 nM

## COc1cccc2c1C(=O)c1c(O)c3c(c(O)c1C2=O)C[C@@](O)(C(=O)CO)C[C@@H]3O[C@H]1C[C@H](NC(=O)N(CCCl)N=O)[C@H](O)[C@H](C)O1 [AD 337]
[3]; water or saline solution
  solubility: essentially insoluble in water or saline solution
[3]; water, of the order of, read-out: solubility in water
  solubility: < 25 µg/mL

## CNC(=O)N[C@H]1C[C@H](O[C@H]2C[C@](O)(C(=O)CO)Cc3c(O)c4c(c(O)c32)C(=O)c2c(OC)cccc2C4=O)O[C@@H](C)[C@H]1O [AD 342]
[1]; [5]
  IC50: 2000 nM

## COc1cccc2c1C(=O)c1c(O)c3c(c(O)c1C2=O)C[C@@](O)(C(=O)CO)C[C@@H]3O[C@H]1C[C@H](NC(=O)N(C)N=O)[C@H](O)[C@H](C)O1 [AD 343]
[1]; 48 h, read-out: ID50
  IC50: 480 nM

## CCNC(=O)N[C@H]1C[C@H](O[C@H]2C[C@](O)(C(=O)CO)Cc3c(O)c4c(c(O)c32)C(=O)c2c(OC)cccc2C4=O)O[C@@H](C)[C@H]1O [AD 344]
[1]; 48 h, read-out: ID50
  IC50: 580 nM

## CCN(N=O)C(=O)N[C@H]1C[C@H](O[C@H]2C[C@](O)(C(=O)CO)Cc3c(O)c4c(c(O)c32)C(=O)c2c(OC)cccc2C4=O)O[C@@H](C)[C@H]1O [AD 345]
[1]; 48 h, read-out: ID50
  IC50: 610 nM

## COc1cccc2c1C(=O)c1c(O)c3c(c(O)c1C2=O)C[C@@](O)(C(=O)CO)C[C@@H]3O[C@H]1C[C@H](NC(=O)NCCCl)[C@H](O)[C@H](C)O1 [AD 346, 2-chloroethylureidoadriamycin]
[1]; [5]
  IC50: 90 nM
[2]
  interference with topoisomerase I-mediated conversion of supercoiled DNA / intercalation: reasonably strong intercalators
DNA topoisomerase II
  enhancement of topoisomerase II-mediated DNA cleavage: do not enhance topoisomerase II-mediated cleavage

## CCCNC(=O)N[C@H]1C[C@H](O[C@H]2C[C@](O)(C(=O)CO)Cc3c(O)c4c(c(O)c32)C(=O)c2c(OC)cccc2C4=O)O[C@@H](C)[C@H]1O [AD 348]
[1]; [5]
  IC50: 770 nM

## CCCN(N=O)C(=O)N[C@H]1C[C@H](O[C@H]2C[C@](O)(C(=O)CO)Cc3c(O)c4c(c(O)c32)C(=O)c2c(OC)cccc2C4=O)O[C@@H](C)[C@H]1O [AD 349]
[1]; [5]
  IC50: 430 nM

## COc1cccc2c1C(=O)c1c(O)c3c(c(O)c1C2=O)C[C@@](O)(C(=O)CO)C[C@@H]3O[C@H]1C[C@H](NC(=O)NC(C)C)[C@H](O)[C@H](C)O1 [AD 350]
[1]; [5]
  IC50: 720 nM

## COc1cccc2c1C(=O)c1c(O)c3c(c(O)c1C2=O)C[C@@](O)(C(=O)CO)C[C@@H]3O[C@H]1C[C@H](NC(=O)Nc2ccccc2)[C@H](O)[C@H](C)O1 [AD 352]
[1]; [5]
  IC50: 400 nM

## COc1ccc(NC(=O)N[C@H]2C[C@H](O[C@H]3C[C@](O)(C(=O)CO)Cc4c(O)c5c(c(O)c43)C(=O)c3c(OC)cccc3C5=O)O[C@@H](C)[C@H]2O)cc1 [AD 354]
[1]; [5]
  IC50: 710 nM

## COc1cccc2c1C(=O)c1c(O)c3c(c(O)c1C2=O)C[C@@](O)(C(=O)CO)C[C@@H]3O[C@H]1C[C@H](NC(=O)Nc2ccc(F)cc2)[C@H](O)[C@H](C)O1 [AD 356]
[1]; [5]
  IC50: 1140 nM

## CCOC(=O)NC(=S)N[C@H]1C[C@H](O[C@H]2C[C@](O)(C(=O)CO)Cc3c(O)c4c(c(O)c32)C(=O)c2c(OC)cccc2C4=O)O[C@@H](C)[C@H]1O [AD 360]
[1]; [5]
  IC50: 360 nM

## COc1cccc2c1C(=O)c1c(O)c3c(c(O)c1C2=O)C[C@@](O)(C(C)=O)C[C@@H]3O[C@H]1C[C@@H]2NC(=O)O[C@@H]2[C@H](C)O1 [AD 362]
[1]; [5]
  IC50: 880 nM

## COc1cccc2c1C(=O)c1c(O)c3c(c(O)c1C2=O)C[C@@](O)(C(=O)CO)C[C@@H]3O[C@H]1C[C@@H]2NC(=O)O[C@@H]2[C@H](C)O1 [AD 363]
[1]; [5]
  IC50: 710 nM

## COc1cccc2c1C(=O)c1c(O)c3c(c(O)c1C2=O)C[C@@](O)(C(=O)CO)C[C@@H]3O[C@H]1C[C@H](NC(=O)NCCCl)[C@@H](O)[C@H](C)O1 [AD 391, 2-chloroethylureidoepirubicin]
[1]; [5]
  IC50: 80 nM
[2]
  interference with topoisomerase I-mediated conversion of supercoiled DNA / intercalation: strong intercalators
DNA topoisomerase II
  enhancement of topoisomerase II-mediated DNA cleavage: do not enhance topoisomerase II-mediated cleavage

## COc1cccc2c1C(=O)c1c(O)c3c(c(O)c1C2=O)C[C@@](O)(C(=O)CO)C[C@@H]3O[C@H]1C[C@H](N)[C@@H](O)[C@H](C)O1 [Epirubicin, epirubicin, reference compound]
[1]; suspension culture, 48 hr continuous drug exposure (Table 3), read-out: CEM, ID50 (50% growth-inhibitory concentration)
  IC50: 30 nM
[4]
  IC90: 430 nM
[2]; 0 = no intercalation, 9 = very strong intercalation
  relative strength of drug-DNA intercalation (arbitrary scale): 7
